Experimental data taken from ChEMBL document CHEMBL5584296, “Discovery of Novel Pyrimidine-Based Derivatives as Nav1.2 Inhibitors with Efficacy in Mouse Models of Epilepsy” (J Med Chem, 2024).

Assays:
[1] = Tmax in male ICR mouse at 1 mg/kg, iv measured after 24 hrs by LC-MS/MS analysis; assay type: ADME, organism-based; settings: in vivo
[2] = molecular target: Sodium channel protein type 1 subunit alpha (Homo sapiens) (UniProt P35498); experiment: Inhibition of human Nav1.1 expressed in HEK293 cells assessed as test to control ratio at 1 uM by whole cell voltage clamp electrophysiological analysis; assay type: cell-based
[3] = Neurotoxicity in male ICR mouse assessed as motor impairment at 20 mg/kg, ip administered for 30 mins by rotarod test relative to control; assay type: toxicity, organism-based; settings: in vivo, 0.5 h
[4] = molecular target: T1, Sodium channel protein type 2 subunit alpha (Homo sapiens, UniProt Q99250); experiment: Inhibition of human Nav1.2 expressed in HEK293 cells at -120 mv holding potential measured after 5 mins by whole cell voltage clamp electrophysiological analysis; assay type: cell-based
Target sequence in this assay (Q99250 whole entry): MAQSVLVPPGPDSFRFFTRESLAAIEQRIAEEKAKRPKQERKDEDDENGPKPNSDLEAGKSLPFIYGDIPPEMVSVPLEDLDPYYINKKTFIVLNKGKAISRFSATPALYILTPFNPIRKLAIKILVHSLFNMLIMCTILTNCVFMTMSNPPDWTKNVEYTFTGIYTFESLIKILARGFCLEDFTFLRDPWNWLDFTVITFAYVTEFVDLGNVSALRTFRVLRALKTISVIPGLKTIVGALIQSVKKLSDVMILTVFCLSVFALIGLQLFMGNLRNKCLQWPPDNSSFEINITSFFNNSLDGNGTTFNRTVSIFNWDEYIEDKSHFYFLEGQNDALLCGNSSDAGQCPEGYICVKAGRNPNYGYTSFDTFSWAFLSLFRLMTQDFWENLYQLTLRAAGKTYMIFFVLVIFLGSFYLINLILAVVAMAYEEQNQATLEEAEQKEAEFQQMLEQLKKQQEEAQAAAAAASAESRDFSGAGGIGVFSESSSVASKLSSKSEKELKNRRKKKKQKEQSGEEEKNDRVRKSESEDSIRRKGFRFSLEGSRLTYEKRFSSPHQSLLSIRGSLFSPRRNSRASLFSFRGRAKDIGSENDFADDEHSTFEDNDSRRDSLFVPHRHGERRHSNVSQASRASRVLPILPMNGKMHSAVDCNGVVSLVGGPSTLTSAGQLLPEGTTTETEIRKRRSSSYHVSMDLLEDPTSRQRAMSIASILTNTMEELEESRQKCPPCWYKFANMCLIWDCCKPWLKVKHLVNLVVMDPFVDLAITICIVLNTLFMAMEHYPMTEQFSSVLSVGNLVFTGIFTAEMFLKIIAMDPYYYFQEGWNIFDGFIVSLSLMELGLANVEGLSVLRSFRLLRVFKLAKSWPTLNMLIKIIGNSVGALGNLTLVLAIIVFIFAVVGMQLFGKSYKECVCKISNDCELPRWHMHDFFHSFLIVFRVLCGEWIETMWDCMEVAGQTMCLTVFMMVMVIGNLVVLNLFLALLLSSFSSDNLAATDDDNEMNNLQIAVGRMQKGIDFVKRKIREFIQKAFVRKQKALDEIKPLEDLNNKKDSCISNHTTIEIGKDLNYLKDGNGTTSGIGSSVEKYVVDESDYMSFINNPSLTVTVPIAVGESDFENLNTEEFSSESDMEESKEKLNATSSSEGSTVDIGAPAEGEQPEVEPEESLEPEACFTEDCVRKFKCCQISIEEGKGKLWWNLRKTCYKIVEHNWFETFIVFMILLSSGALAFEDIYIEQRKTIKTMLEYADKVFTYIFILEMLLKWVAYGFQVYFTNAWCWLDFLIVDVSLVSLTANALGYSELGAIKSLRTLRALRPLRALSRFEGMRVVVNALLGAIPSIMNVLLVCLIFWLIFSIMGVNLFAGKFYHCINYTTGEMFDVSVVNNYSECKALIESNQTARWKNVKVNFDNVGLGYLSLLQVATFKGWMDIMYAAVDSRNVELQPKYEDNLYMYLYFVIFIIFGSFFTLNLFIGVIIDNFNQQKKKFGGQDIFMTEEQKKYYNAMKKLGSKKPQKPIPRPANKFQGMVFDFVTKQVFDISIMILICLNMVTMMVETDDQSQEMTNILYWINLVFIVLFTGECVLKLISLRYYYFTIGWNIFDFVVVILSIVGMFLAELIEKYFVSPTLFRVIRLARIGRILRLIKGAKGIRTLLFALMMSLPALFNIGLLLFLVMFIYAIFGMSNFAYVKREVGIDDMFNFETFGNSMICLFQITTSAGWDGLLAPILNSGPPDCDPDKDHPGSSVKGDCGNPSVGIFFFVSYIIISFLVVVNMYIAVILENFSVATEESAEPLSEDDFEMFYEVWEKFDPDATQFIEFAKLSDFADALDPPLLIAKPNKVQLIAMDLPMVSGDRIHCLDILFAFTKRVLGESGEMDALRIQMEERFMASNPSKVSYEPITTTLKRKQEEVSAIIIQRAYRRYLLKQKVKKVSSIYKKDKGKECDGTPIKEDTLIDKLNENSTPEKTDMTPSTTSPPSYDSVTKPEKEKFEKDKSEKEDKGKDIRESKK

[5] = molecular target: T1, Sodium channel protein type 2 subunit alpha; experiment: Inhibition of human Nav1.2 expressed in HEK293 cells assessed as effect on steady state inactivation by measuring half activation potential at 10 uM (reference value: -65 mV); assay type: cell-based
Target sequence in this assay (Q99250 whole entry, looked up): as the sequence (Q99250 whole entry) above

[6] = AUC (0 to infinity) in male ICR mouse at 10 mg/kg, ip measured after 24 hrs by LC-MS/MS analysis; assay type: ADME, organism-based; settings: in vivo
[7] = Drug concentration in male ICR mouse brain at 10 mg/kg, ip measured after 0.25 hrs by LC-MS/MS analysis; assay type: ADME, organism-based; settings: read-out: Ct
[8] = Drug concentration in male ICR mouse brain at 20 mg/kg, po measured after 0.25 hrs by LC-MS/MS analysis; assay type: ADME, organism-based; settings: read-out: Ct
Mus musculus = experiment: Antiepileptic activity in 6 Hz(32 mA)-induced seizure male C57BL mouse model assessed as protection against seizure at 50 mg/kg, ip administered for 30 mins by epilepsy test; assay type: functional; settings: 0.5 h
[9] = Drug concentration in male ICR mouse plasma at 10 mg/kg, ip measured after 0.25 hrs by LC-MS/MS analysis; assay type: ADME, organism-based
[10] = molecular target: T1, Sodium channel protein type 2 subunit alpha; experiment: Inhibition of human Nav1.2 expressed in HEK293 cells assessed as test to control ratio at 1 uM measured after 5 mins by whole cell voltage clamp electrophysiological analysis; assay type: cell-based
Target sequence in this assay (Q99250 whole entry, looked up): as the sequence (Q99250 whole entry) above

[11] = Neurotoxicity in male ICR mouse administered intraperitoneally for 30 mins; assay type: toxicity; settings: in vivo, route ip
[12] = MRT (0 to infinity) in male ICR mouse at 1 mg/kg, iv measured after 24 hrs by LC-MS/MS analysis; assay type: ADME, organism-based; settings: in vivo
[13] = Cmax in male ICR mouse at 20 mg/kg, po measured after 24 hrs by LC-MS/MS analysis; assay type: ADME, organism-based; settings: in vivo
[14] = molecular target: T1, Sodium channel protein type 2 subunit alpha; experiment: Inhibition of human Nav1.2 expressed in HEK293 cells at -40 mv holding potential measured after 5 mins by whole cell voltage clamp electrophysiological analysis; assay type: cell-based
Target sequence in this assay (Q99250 whole entry): as above

[15] = Cmax in male ICR mouse at 10 mg/kg, ip measured after 24 hrs by LC-MS/MS analysis; assay type: ADME, organism-based; settings: in vivo
[16] = Tmax in male ICR mouse at 10 mg/kg, ip measured after 24 hrs by LC-MS/MS analysis; assay type: ADME, organism-based; settings: in vivo

COc1cccc(-c2cc(N3CCCc4ccccc4C3)nc(N)n2)c1
Tmax [1]: 3 min | T/C [2]: 0.03 | Activity [3]: 13% | IC50 [4]: 11 µM | V1/2 [5]: -77 mV | AUC(0-inf) [6]: 0.793 µg·h/mL | concentration at 0.25 h [7]: 1900 ng/g | concentration at 0.25 h [8]: 646 ng/g | Activity (Mus musculus): 0% | concentration at 0.25 h [9]: 0.62 µg/mL | T/C [10]: 0.03 | TD50 at 0.5 h [11]: 26.1 mg/kg | MRT inf [12]: 33.6 min | Cmax [13]: 0.0634 µg/mL | IC50 [14]: 0.12 µM | Cmax [15]: 0.956 µg/mL | Tmax [16]: 7.2 min
